Data published in BindingDB's records for doi:10.1074/jbc.M113.490441 (University of Calgary, 2013).
pKd: −log10 of the molar value.

Target: T1, Histidine-binding periplasmic protein [1-238] (Escherichia coli (strain 55989 / EAEC), UniProt P0AEU0)
T1 construct: 1-238
T1 sequence (P0AEU0 whole entry): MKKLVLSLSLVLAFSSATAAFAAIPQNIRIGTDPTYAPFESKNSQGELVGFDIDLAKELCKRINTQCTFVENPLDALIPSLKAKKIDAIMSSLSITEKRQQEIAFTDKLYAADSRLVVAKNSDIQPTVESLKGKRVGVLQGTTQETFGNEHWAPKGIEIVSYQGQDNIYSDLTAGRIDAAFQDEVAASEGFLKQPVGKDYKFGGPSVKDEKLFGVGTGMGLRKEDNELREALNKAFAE
Experiment: Isothermal Titration Calorimetry (ITC)
Settings: pH 7; 30 °C
Experimental: All ITC experiments were performed using a Microcal VP-ITC microcalorimeter (GE Healthcare). All samples were prepared in a buffer containing 20 mM HEPES (pH 7.0) and 100 mM NaCl. The syringe was filled with 0.5 mM histidine that was injected into the ITC cell containing 20 μM protein (D1, D2, or HisJ) solution at 30 °C.

N[C@@H](Cc1c[nH]cn1)C(=O)O [L-2-Amino-3-(4-imidazolyl)propionic acid]
pKd: 6.94
